Biological target: T1, Ba/F3 cell EGFR Exon20 ins NPH (Homo sapiens, UniProt P00533, INS773NPH)
T1 construct: expressed in transfected cells; host or cells: Ba/F3
Experiment: Ba/F3 cell proliferation suppression, EGFR Exon20 ins NPH
Type: cell-based
Conditions: GI50 class; Ba/F3 cell line with NPH inserted at Exon20 of EGFR; 72 hours
How it was run: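 After 72 h compound exposure (twelve 3-fold steps, 0.3 nM–50 um final), live cells were measured by CellTiter-Glo luminescence and growth expressed as % of control to derive GI50. Cells were seeded at 3000–5000 per well a day earlier; Ba/F3 medium contained IL-3; three repeats.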

In the case of C=CC(=O)Nc1cc(Nc2cc(N3OCC[C@@H]3c3cccc4ccccc34)ncn2)c(OC)cc1N1CCC(N2CCO[C@H](C)C2)CC1 [compound 536, N-(4-methoxy-2-(4-((R)-2-methylmorpholino)piperidine-1-yl)-5-((6-((R)-3-(naphthalene-1-yl)isoxazolidine-2-yl)pyrimidine-4-yl)amino)phenyl) acrylamide], the “Ba/F3 (NPH) Activity” value is reported as “A (GI50 < 50 nM)”.
C=CC(=O)Nc1cc(Nc2cc(N3OCC[C@@H]3c3cccc(Cl)c3)ncn2)c(OC)cc1N1CC[C@H](N(C)C)C1 [compound 468, N-(5-((6-((R)-3-(3-chlorophenyl)isoxazolidine-2-yl)pyrimidine-4-yl)amino)-2-((S)-3-(dimethylamino)pyrolidine-1-yl)-4-methoxyphenyl) acrylamide] was tested, and the “Ba/F3 (NPH) Activity” value was “A (GI50 < 50 nM)”.
In the case of C=CC(=O)Nc1cc(Nc2cc(N3OCC[C@@H]3c3ccc(C)nc3)ncn2)c(OC)cc1N1CCN(C(C)=O)CC1 [Example 49, N-(2-(4-acetylpiperazine-1-yl)-4-methoxy-5-((6-((R)-3-(6-methylpyridine-3-yl)isoxazolidine-2-yl)pyrimidine-4-yl)amino)phenyl) acrylamide], the “Ba/F3 (NPH) Activity” value is reported as “C (500 nM ≤ GI50 < 5000 nM)”.
In the case of C=CC(=O)Nc1cc(Nc2cc(N3OCC[C@@H]3c3cc(F)cc(F)c3)ncn2)c(OC)cc1N1CCC(N2CCCN(C3CC3)CC2)CC1 [compound 717, N-(2-(4-(4-cyclopropyl-1,4-diazepane-1-yl)piperidine-1-yl)-5-((6-((R)-3-(3,5-difluorophenyl)isoxazolidine-2-yl)pyrimidine-4-yl)amino)-4-methoxyphenyl) acrylamide], the “Ba/F3 (NPH) Activity” value is reported as “A (GI50 < 50 nM)”.
For C=CC(=O)Nc1cc(Nc2cc(N3OCC[C@@H]3c3cc(F)ccc3F)ncn2)c(OC)cc1N1CCC(N2CC[C@@H](N(C)C)C2)CC1 [compound 304, N-(5-((6-((R)-3-(2,5-difluorophenyl)isoxazolidine-2-yl)pyrimidine-4-yl)amino)-2-(4-((R)-3-(dimethylamino)pyrolidine-1-yl)piperidine-1-yl)-4-methoxyphenyl) acrylamide], the “Ba/F3 (NPH) Activity” value was “A (GI50 < 50 nM)”.
For C=CC(=O)Nc1cc(Nc2cc(N3OCC[C@@H]3c3ccc(Cl)c(Cl)c3F)ncn2)c(OC)cc1N1CCC(N2CCN(C(C)C)CC2)CC1 [compound 804, N-(5-((6-((R)-3-(3,4-dichloro-2-fluorophenyl)isoxazolidine-2-yl)pyrimidine-4-yl)amino)-2-(4-(4-isopropylpiperazine-1-yl)piperidine-1-yl)-4-methoxyphenyl) acrylamide], the “Ba/F3 (NPH) Activity” value was “A (GI50 < 50 nM)”.
For C=CC(=O)Nc1cc(Nc2cc(N3OCC[C@@H]3c3cccc(F)c3F)ncn2)c(OC)cc1N1CCC(N2CCN(C)[C@H](C)C2)CC1 [compound 336, N-(5-((6-((R)-3-(2,3-difluorophenyl)isoxazolidine-2-yl)pyrimidine-4-yl)amino)-2-(4-((R)-3,4-dimethylpiperazine-1-yl)piperidine-1-yl)-4-methoxyphenyl) acrylamide], the “Ba/F3 (NPH) Activity” value was “A (GI50 < 50 nM)”.
For C=CC(=O)Nc1cc(Nc2cc(N3OCC[C@@H]3c3ccc(F)cc3F)ncn2)c(OC)cc1N1CCC(N(C)C)CC1 [compound 384, N-(5-((6-((R)-3-(2,4-difluorophenyl)isoxazolidine-2-yl)pyrimidine-4-yl)amino)-2-(4-(dimethylamino)piperidine-1-yl)-4-methoxyphenyl) acrylamide], the “Ba/F3 (NPH) Activity” value was “A (GI50 < 50 nM)”.
C=CC(=O)Nc1cc(Nc2cc(N3OCC[C@@H]3c3cccc(F)c3Cl)ncn2)c(OC)cc1N1CCC(N2C[C@H]3CCN(C)[C@H]3C2)CC1 [compound 447, N-(5-((6-((R)-3-(2-chloro-3-fluorophenyl)isoxazolidine-2-yl)pyrimidine-4-yl)amino)-4-methoxy-2-(4-((3aR,6aR)-1-methylhexahydropyrrolo [3,4-b]pyrrole-5(1H)-yl)piperidine-1-yl)phenyl)acrylamide] was tested, and the “Ba/F3 (NPH) Activity” value was “A (GI50 < 50 nM)”.
With C=CC(=O)Nc1cc(Nc2cc(N3OCC[C@@H]3c3cccc(Cl)c3F)ncn2)c(OC)cc1N1CCC(N(C)C)CC1 [compound 790, N-(5-((6-((R)-3-(3-chloro-2-fluorophenyl)isoxazolidine-2-yl)pyrimidine-4-yl)amino)-2-(4-(dimethylamino)piperidine-1-yl)-4-methoxyphenyl) acrylamide] the “Ba/F3 (NPH) Activity” value was “A (GI50 < 50 nM)”.
In the case of C=CC(=O)Nc1cc(Nc2cc(N3OCC[C@@H]3c3cccc(C#N)c3)ncn2)c(OC)cc1N1CCC(N2CCN(C(C)C)CC2)CC1 [compound 494, N-(5-((6-((R)-3-(3-cyanophenyl)isoxazolidine-2-yl)pyrimidine-4-yl)amino)-2-(4-(4-isopropylpiperazine-1-yl)piperidine-1-yl)-4-methoxyphenyl) acrylamide], the “Ba/F3 (NPH) Activity” value is reported as “A (GI50 < 50 nM)”.
In the case of C=CC(=O)Nc1cc(Nc2cc(N3OCC[C@@H]3c3cccc(C)c3F)ncn2)c(OC)cc1N1CCN(C2CC2)CC1 [compound 909, N-(2-(4-cyclopropylpiperazine-1-yl)-5-((6-((R)-3-(2-fluoro-3-methylphenyl)isoxazolidine-2-yl)pyrimidine-4-yl)amino)-4-methoxyphenyl) acrylamide], the “Ba/F3 (NPH) Activity” value is reported as “A (GI50 < 50 nM)”.
C=CC(=O)Nc1cc(Nc2cc(N3OCC[C@@H]3c3ccc(Cl)cc3F)ncn2)c(OC)cc1N1CCC(N2C[C@H]3C[C@@H]2CO3)CC1 [compound 548, N-(2-(4-((1R,4R)-2-oxa-5-azabicyclo[2.2.1]heptane-5-yl)piperidine-1-yl)-5-((6-((R)-3-(4-chloro-2-fluorophenyl)isoxazolidine-2-yl)pyrimidine-4-yl)amino)-4-methoxyphenyl) acrylamide] was tested, and the “Ba/F3 (NPH) Activity” value was “A (GI50 < 50 nM)”.
With C=CC(=O)Nc1cc(Nc2cc(N3OCC[C@@]3(C)c3ccccc3)ncn2)c(OC)cc1N1CCC(N2C[C@H]3C[C@@H]2CO3)CC1 [Example 269, N-(2-(4-((1R,4R)-2-oxa-5-azabicyclo[2.2.1]heptane-5-yl)piperidine-1-yl)-4-methoxy-5-((6-((S)-3-methyl-3-phenylisoxazolidine-2-yl)pyrimidine-4-yl)amino)phenyl) acrylamide] the “Ba/F3 (NPH) Activity” value was “C (500 nM ≤ GI50 < 5000 nM)”.
In the case of C=CC(=O)Nc1cc(Nc2cc(N3OCC[C@@H]3Cc3cccc(F)c3C)ncn2)c(OC)cc1N1CCC(N2CCN(C3CC3)CC2)CC1 [compound 999, N-(2-(4-(4-cyclopropylpiperazine-1-yl)piperidine-1-yl)-5-((6-((S)-3-(3-fluoro-2-methylbenzyl)isoxazolidine-2-yl)pyrimidine-4-yl)amino)-4-methoxyphenyl) acrylamide], the “Ba/F3 (NPH) Activity” value is reported as “A (GI50 < 50 nM)”.
For C=CC(=O)Nc1cc(Nc2cc(N3OCC[C@@H]3c3cccc(OC)c3)ncn2)c(OC)cc1N1CCC(N2CCN(C3CC3)CC2)CC1 [Example 65, N-(2-(4-(4-cyclopropylpiperazine-1-yl)piperidine-1-yl)-4-methoxy-5-((6-((R)-3-(3-methoxyphenyl)isoxazolidine-2-yl)pyrimidine-4-yl)amino)phenyl) acrylamide], the “Ba/F3 (NPH) Activity” value was “A (GI50 < 50 nM)”.
For C=CC(=O)Nc1cc(Nc2cc(N3OCC[C@@H]3c3cccc4ccccc34)ncn2)c(OC)cc1N1CCC(N2CCO[C@@H](C)C2)CC1 [compound 535, N-(4-methoxy-2-(4-((S)-2-methylmorpholino)piperidine-1-yl)-5-((6-((R)-3-(naphthalene-1-yl)isoxazolidine-2-yl)pyrimidine-4-yl)amino)phenyl)acrylamide], the “Ba/F3 (NPH) Activity” value was “A (GI50 < 50 nM)”.
In the case of C=CC(=O)Nc1cc(Nc2cc(N3OCC[C@@H]3c3cccc(F)c3)ncn2)c(OC)cc1N1CCC(N2CCOCC2)CC1 [Example 38, N-(5-((6-((R)-3-(3-fluorophenyl)isoxazolidine-2-yl)pyrimidine-4-yl)amino)-4-methoxy-2-(4-morpholinopiperidine-1-yl)phenyl) acrylamide], the “Ba/F3 (NPH) Activity” value is reported as “A (GI50 < 50 nM)”.
C=CC(=O)Nc1cc(Nc2cc(N3OCC[C@]3(C)c3ccccc3)ncn2)c(OC)cc1N1CCC(N2C[C@H]3C[C@@H]2CO3)CC1 [Example 270, N-(2-(4-((1R,4R)-2-oxa-5-azabicyclo[2.2.1]heptane-5-yl)piperidine-1-yl)-4-methoxy-5-((6-((R)-3-methyl-3-phenylisoxazolidine-2-yl)pyrimidine-4-yl)amino)phenyl) acrylamide] was tested, and the “Ba/F3 (NPH) Activity” value was “B (50 nM ≤ GI50 < 500 nM)”.
For C=CC(=O)Nc1cc(Nc2cc(N3OCC[C@@H]3c3ccc(Cl)c(Cl)c3)ncn2)c(OC)cc1N1C[C@H]2C[C@@H]1CN2C [compound 674, N-(5-((6-((R)-3-(3,4-dichlorophenyl)isoxazolidine-2-yl)pyrimidine-4-yl)amino)-4-methoxy-2-((1R,4R)-5-methyl-2,5-diazabicyclo[2.2.1]heptane-2-yl)phenyl) acrylamide], the “Ba/F3 (NPH) Activity” value was “A (GI50 < 50 nM)”.
With C=CC(=O)Nc1cc(Nc2cc(N3OCC[C@@H]3c3ccc(F)cc3F)ncn2)c(OC)cc1-n1cncc1C [compound 377, N-(5-((6-((R)-3-(2,4-difluorophenyl)isoxazolidine-2-yl)pyrimidine-4-yl)amino)-4-methoxy-2-(5-methyl-1H-imidazole-1-yl)phenyl)acrylamide] the “Ba/F3 (NPH) Activity” value was “B (50 nM ≤ GI50 < 500 nM)”.
C=CC(=O)Nc1cc(Nc2cc(N3OCC[C@@H]3c3cccc(Cl)c3Cl)ncn2)c(OC)cc1-n1cnc(C)c1 [compound 527, N-(5-((6-((R)-3-(2,3-dichlorophenyl)isoxazolidine-2-yl)pyrimidine-4-yl)amino)-4-methoxy-2-(4-methyl-1H-imidazole-1-yl)phenyl)acrylamide] was tested, and the “Ba/F3 (NPH) Activity” value was “A (GI50 < 50 nM)”.
